The values that follow come from patent US9000025B2, “Autotaxin inhibitors and uses thereof” (Amira Pharmaceuticals, Inc., priority 2010, dated 2015).

This experiment addresses T1, autotaxin (ATX) (Homo sapiens, UniProt Q13822).
T1 construct: conditioned medium from the human melanoma cell line, MDA-MB-4355, which endogenously expresses autotaxin; host or cells: MDA-MB-435S human melanoma cells; serum-free conditioned medium, concentrated 20-fold
The experiment is described as follows: Native Autotaxin Choline Release Assay. As to conditions: autotaxin in conditioned medium from human melanoma cell line; choline released from LPC; read-out: MDA-MB-435S Assay IC50. It is filed as biochemical. On the procedure: ATX activity is determined by measuring the amount of choline realeased from the substrate, lyosphophatidylcholine (LPC). […] After reaching confluency, the cells are washed twice with phosphate-buffered saline (PBS) then cultured for 48 hours in phenol-red free, serum-free DMEM containing sodium pyruvate. […] 100 μl of a color mix which contains 4.5 mM 4-aminoantipyrine, 2.7 mM N-ethyl-N-(2-hydroxy-3-sulfopropyl)-m-toluidine, 21 units/ml horseradish peroxidase and 3 units/ml choline oxidase in 50 mM Tris, pH 8, 4.5 mM MgCl2 is added and the incubation continued at 37° C. for 10 minutes before reading the absorbance at 555 nm. The concentration of released choline in the sample is determined from a choline standard curve and is equal to the concentration of LPA produced.

Bounds are passed on as bounds.

`Cc1c(Sc2cccc(Cc3nn[nH]n3)c2)c2ccc(Cl)cc2n1Cc1ccccc1` [Compound 2-8, 1-Benzyl-6-chloro-2-methyl-3-[3-(2H-tetrazol-5-ylmethyl)-phenylsulfanyl]-1H-indole]: the IC50 was greater than 1000 nM. Consider `Cc1cncc(-n2c(C)c(Sc3cccc(CC(=O)O)c3)c3ccc(Cl)cc32)c1` [Compound 1-48, {3-[6-Chloro-2-methyl-1-(5-methyl-pyridin-3-yl)-1H-indol-3-ylsulfanyl]-phenyl}-acetic acid], for which the IC50 was less than 300 nM. For the molecule `Cc1c(Sc2cccc(C(=O)O)c2)c2ccc(Cl)cc2n1C` [Compound 1-6, 3-(6-Chloro-1,2-dimethyl-1H-indol-3-ylsulfanyl)-benzoic acid], the IC50 was greater than 1000 nM. The same measure for `CCCn1cc(-n2c(C)c(Sc3ccc(C)c(C(=O)O)c3)c3ccc(Cl)c(F)c32)cn1` [Compound 4-13, 5-[6-Chloro-1-(1-propyl-1H-pyrazol-4-yl)-7-fluoro-2-methyl-1H-indol-3-ylsulfanyl]-2-methyl-benzoic acid]: less than 300 nM; for `CCOc1ccc(-n2c(C)c(Sc3cccc(C(=O)O)c3)c3ccc(Cl)cc32)cn1` [Compound 1-36, 3-[6-Chloro-1-(6-ethoxy-pyridin-3-yl)-2-methyl-1H-indol-3-ylsulfanyl]-benzoic acid]: less than 300 nM; for `CCn1cc(-n2c(C)c(Sc3cccc(C(=O)O)c3)c3ccc(Cl)c(C)c32)cn1` [Compound 3-21, 3-[6-Chloro-1-(1-ethyl-1H-pyrazol-4-yl)-2,7-dimethyl-1H-indol-3-ylsulfanyl]-benzoic acid]: less than 300 nM.

With `COc1ccc(Cn2cc(-n3c(C)c(Sc4cccc(C(=O)O)c4)c4ccc(Cl)c(F)c43)cn2)cc1` [Compound 3-48, 3-{6-Chloro-7-fluoro-1-[1-(4-methoxy-benzyl)-1H-pyrazol-4-yl]-2-methyl-1H-indol-3-ylsulfanyl}-benzoic acid], the IC50 was less than 300 nM. On to `Cc1c(Sc2cccc(C(=O)O)c2)c2ccc(Cl)cc2n1Cc1ccccn1` [Compound 1-24, 3-(6-Chloro-2-methyl-1-pyridin-2-ylmethyl-1H-indol-3-ylsulfanyl)-benzoic acid], for which the IC50 was in the range of 300 to 1000 nM. Turning to `COCCn1c(C)c(Sc2cccc(CC(=O)O)c2)c2ccc(Cl)cc21` [Compound 1-8, {3-[6-Chloro-1-(2-methoxy-ethyl)-2-methyl-1H-indol-3-ylsulfanyl]-phenyl}-acetic acid], the IC50 was in the range of 300 to 1000 nM. The same measure for `Cc1c(Sc2cccc(C(=O)O)c2)c2ccc(Br)cc2n1Cc1ccccc1` [Compound 1-10, 3-(1-Benzyl-6-bromo-2-methyl-1H-indol-3-ylsulfanyl)-benzoic acid]: 300 to 1000 nM; for `Cc1c(Sc2cccc(-c3nn[nH]n3)c2)c2ccc(Cl)cc2n1Cc1ccccc1` [Compound 2-9, 1-Benzyl-6-chloro-2-methyl-3-[3-(2H-tetrazol-5-yl)-phenylsulfanyl]-1H-indole]: greater than 1000 nM. The same measure for `Cc1c(Sc2cccc(C(=O)O)c2)c2ccc(Cl)c(F)c2n1-c1cnn(CCO)c1` [Compound 3-50, 3-{6-Chloro-7-fluoro-1-[1-(2-hydroxy-ethyl)-1H-pyrazol-4-yl]-2-methyl-1H-indol-3-ylsulfanyl}-benzoic acid]: less than 300 nM; for `COc1ccc2c(Sc3cccc(CC(=O)O)c3)c(C)[nH]c2c1` [Compound 1-3, [3-(6-Methoxy-2-methyl-1H-indol-3-ylsulfanyl)-phenyl]-acetic acid]: greater than 1000 nM; for `O=C(O)c1cccc(Sc2cn(-c3cccnc3)c3cc(Cl)ccc23)c1` [Compound 3-19, 3-(6-Chloro-1-pyridin-3-yl-1H-indol-3-ylsulfanyl)-benzoic acid]: 300 to 1000 nM.

As to `Cc1[nH]c2cc(Cl)ccc2c1Sc1ccc(CC(=O)O)cc1` [Compound 3-2, [4-(6-Chloro-2-methyl-1H-indol-3-ylsulfanyl)-phenyl]-acetic acid], the IC50 is greater than 1000 nM.

`Cc1ccc(-n2cc(-n3c(C)c(Sc4cccc(C(=O)O)c4)c4ccc(Cl)cc43)cn2)cc1` [Compound 1-130, 3-[6-Chloro-2-methyl-1-(1-p-tolyl-1H-pyrazol-4-yl)-1H-indol-3-ylsulfanyl]-benzoic acid]: the IC50 is less than 300 nM. The same measure for `Cc1c(Sc2cccc(CC(=O)O)c2)c2ccc(Cl)cc2n1Cc1ccccc1` [Compound 1-14, [3-(1-Benzyl-6-chloro-2-methyl-1H-indol-3-ylsulfanyl)-phenyl]-acetic acid]: greater than 1000 nM. In the case of `O=C(O)c1cccc(Sc2c(C(F)(F)F)[nH]c3cc(Cl)ccc23)c1` [Compound 3-7, 3-(6-Chloro-2-trifluoromethyl-1H-indol-3-ylsulfanyl)-benzoic acid], the IC50 is greater than 1000 nM. Next, `CCc1c(Sc2cccc(C(=O)O)c2)c2ccc(Cl)cc2n1Cc1ccccc1` [Compound 3-15, 3-(1-Benzyl-6-chloro-2-ethyl-1H-indol-3-ylsulfanyl)-benzoic acid]: greater than 1000 nM; `CCn1cc(-n2c(C)c(Sc3ccc(C)c(C(=O)O)c3)c3ccc(Cl)cc32)cn1` [Compound 1-132, 5-[6-Chloro-1-(1-ethyl-1H-pyrazol-4-yl)-2-methyl-1H-indol-3-ylsulfanyl]-2-methyl-benzoic acid]: less than 300 nM. Next, `Cc1c(Sc2cccc(C(=O)O)c2)c2ccc(Cl)cc2n1-c1cnsc1` [Compound 1-42, 3-(6-Chloro-1-isothiazol-4-yl-2-methyl-1H-indol-3-ylsulfanyl)-benzoic acid]: less than 300 nM; `CCCn1cc(-n2c(C)c(Sc3cccc(C(=O)O)c3F)c3ccc(Cl)cc32)cn1` [Compound 1-131, 3-[6-Chloro-2-methyl-1-(1-propyl-1H-pyrazol-4-yl)-1H-indol-3-ylsulfanyl]-2-fluoro-benzoic acid]: less than 300 nM. `Cc1c(Sc2cccc(C(=O)O)c2)c2ccc(Cl)c(F)c2n1-c1cnn(CC2CC2)c1` [Compound 3-34, 3-[6-Chloro-1-(1-cyclopropylmethyl-1H-pyrazol-4-yl)-7-fluoro-2-methyl-1H-indol-3-ylsulfanyl]-benzoic acid]: the IC50 was less than 300 nM. Consider `COc1cncc(-n2c(C)c(Sc3cccc(C(=O)O)c3)c3ccc(Cl)cc32)c1` [Compound 1-37, 3-[6-Chloro-1-(5-methoxy-pyridin-3-yl)-2-methyl-1H-indol-3-ylsulfanyl]-benzoic acid], for which the IC50 is less than 300 nM. In the case of `Cc1c(Sc2c(C)n(-c3cnn(C)c3)c3cc(Cl)ccc23)cccc1C(=O)O` [Compound 1-63, 3-[6-Chloro-2-methyl-1-(1-methyl-1H-pyrazol-4-yl)-1H-indol-3-ylsulfanyl]-2-methyl-benzoic acid], the IC50 is less than 300 nM. Take `CCn1cc(-n2c(C)c(Sc3cccc(C(=O)O)c3OC)c3ccc(Cl)cc32)cn1` [Compound 1-62, 3-[6-Chloro-2-methyl-1-(1-ethyl-1H-pyrazol-4-yl)-1H-indol-3-ylsulfanyl]-2-methoxy-benzoic acid]: the IC50 was less than 300 nM. Next, `Cc1c(Sc2cccc(C(=O)O)c2)c2ccc(Cl)cc2n1Cc1ccc(C(F)(F)F)nc1` [Compound 1-22, 3-[6-Chloro-2-methyl-1-(6-trifluoromethyl-pyridin-3-ylmethyl)-1H-indol-3-ylsulfanyl]-benzoic acid]: greater than 1000 nM. For `COc1c(Sc2c(C)n(-c3cnn(C)c3)c3cc(Cl)ccc23)cccc1C(=O)O` [Compound 1-61, 3-[6-Chloro-2-methyl-1-(1-methyl-1H-pyrazol-4-yl)-1H-indol-3-ylsulfanyl]-2-methoxy-benzoic acid], the half-inhibitory concentration (IC50) is less than 300 nM. As for `COc1ccc(CC(=O)O)cc1Sc1c(C)n(-c2cnn(C)c2)c2cc(Cl)ccc12` [Compound 1-47, {3-[6-Chloro-2-methyl-1-(1-methyl-1H-pyrazol-4-yl)-1H-indol-3-ylsulfanyl]-4-methoxy-phenyl}-acetic acid], the IC50 was greater than 1000 nM. On to `Cc1cncc(-n2c(C)c(Sc3cccc(C(=O)O)c3C)c3ccc(Cl)cc32)c1` [Compound 1-65, 3-[6-Chloro-2-methyl-1-(5-methyl-pyridin-3-yl)-1H-indol-3-ylsulfanyl]-2-methyl-benzoic acid], for which the IC50 was less than 300 nM. The same measure for `Cc1c(Sc2cccc(C(=O)O)c2)c2ccc(Cl)cc2n1-c1cnn(Cc2ccccc2)c1` [Compound 1-59, 3-[1-(1-Benzyl-1H-pyrazol-4-yl)-6-chloro-2-methyl-1H-indol-3-ylsulfanyl]-benzoic acid]: less than 300 nM.

For the molecule `COc1c(C)cnc(Cn2c(C)c(Sc3cccc(C(=O)O)c3)c3ccc(Cl)cc32)c1C` [Compound 1-25, 3-[6-Chloro-1-(4-methoxy-3,5-dimethyl-pyridin-2-ylmethyl)-2-methyl-1H-indol-3-ylsulfanyl]-benzoic acid], the IC50 was less than 300 nM. Next, `Cc1[nH]c2ccc(Cl)cc2c1Sc1cccc(CC(=O)O)c1` [Compound 3-3, [3-(5-Chloro-2-methyl-1H-indol-3-ylsulfanyl)-phenyl]-acetic acid]: greater than 1000 nM; `CCCn1cc(-n2c(C)c(Sc3cccc(C(=O)O)c3)c3cc(F)c(Cl)cc32)cn1` [Compound 3-27, 3-[6-Chloro-5-fluoro-2-methyl-1-(1-propyl-1H-pyrazol-4-yl)-1H-indol-3-ylsulfanyl]-benzoic acid]: less than 300 nM.

Regarding `Cc1c(Sc2cccc(C(=O)O)c2)c2ccc(Cc3ccccc3)cc2n1Cc1ccccc1` [Compound 1-13, 3-(1,6-Dibenzyl-2-methyl-1H-indol-3-ylsulfanyl)-benzoic acid], the IC50 is greater than 1000 nM.

Consider `Cc1c(Sc2cccc(C(=O)O)c2)c2ccc(-c3ccccc3)cc2n1Cc1ccccc1` [Compound 1-11, 3-(1-Benzyl-2-methyl-6-phenyl-1H-indol-3-ylsulfanyl)-benzoic acid], for which the IC50 is greater than 1000 nM.

For orientation: IC50 means the concentration at which inhibition is half-maximal.
